Measured values as given in patent publication US20120077673A1, “Fungicidal Compositions and Methods of Use” (priority 2010, published 2012).

Columns and labels:
Type in all cases: in vivo
Details in all cases: Triadimenol 30 GA/100 Kg
Pythium [1] = assay: Corn hybrids greenhouse trial, Pythium-infected seeds, seed treatment (Example 4)
Text: Concentrations and compositions of triadimenol, metalaxyl, and saponin are the same as given in Example 1. The data of TABLE 4 are shown graphically in FIGS. 4A and 4B. As shown by TABLE 4 and FIGS. 4A and 4B, pre-treatment of both varieties of corn seeds with 1 GA/100 Kg metalaxyl and 0.6 GA/100 Kg yielded counts similar to those achieved from pre-treatment of seeds with either 2 GA/100 Kg metalaxyl (the industry standard dose for corn) or 7.5 GA/100 Kg metalaxyl.

Pythium [2] = assay: Cotton field trial, Pythium-infected seeds, seed treatment, control or Pythium-inoculated soil (Example 2)
Text: The seeds were planted in a field, either in soil that had been inoculated with Pythium (Soil Inoc. with Pythium), or in soil that had not been inoculated with Pythium (Ctrl.), then allowed to grow. Concentrations and compositions of triadimenol, metalaxyl, and saponin are the same as given in Example 1. For cotton, the industry standard dosage of metalaxyl is 15.5 grams of active ingredient per 100 kilograms of seed (15.5 GA/100 Kg). […] The data of TABLE 2 are shown graphically in FIG. 2. The relative densities for the data of TABLE 2 and FIG. 2 were calculated with reference to the 15.5 GA/100 Kg metalaxyl category. As shown by TABLE 2 and FIG. 2, inoculation of the soil with Pythium was correlated with a general decrease in cotton seedling count and density (compare Ctrl. versus Inoc.).

Pythium [3] = assay: Corn field trial, Pythium-infected seeds, seed treatment, soil not inoculated (Example 1); set-up: Density: unit not given here
Text: Unlike other experiments disclosed herein, the soil for the experiment of EXAMPLE 1 was not inoculated with Pythium. Uninfected untreated, and Pythium-infected untreated seeds served as controls. Triadimenol, 15% w/v, is a systemic broad-spectrum fungicide used for cereal seed treatment, but has no activity against Pythium spp. Metalaxyl, 28.35% w/v, provides systemic protection for the seed, roots, and emerging plants against Pythium, systemic downy mildew, and Phytophthora. For corn, the industry standard dosage of metalaxyl is 2 grams of active ingredient per 100 kilograms of seed (2 GA/100 Kg). Saponin, 49.65% v/v extract of Chenopodium quinoa saponins, contained approximately equimolar amounts of triterpene bidesmosidic glycosides of oleanolic acid, hederagenin, and phytolaccagenic acid. […] In TABLE 1, “Vigor” represents a subjective measure of plant health and is based on uniformity, consistent plant mass, and consistent plant spacing, with lower scores being more favorable than higher scores. The data of TABLE 1 are shown graphically in FIGS. 1A and 1B. As shown by TABLE 1 and FIGS. 1A and 1B, the count and the density increased—over time—for all treatment conditions. The relative density, however, decreased over time for the […] and metalaxyl (2 GA/100 kg) categories. The relative density remained the same for the untreated/uninfected category because it provided the reference point (i.e., the relative densities were calculated with reference to the untreated/uninfected category).

Pythium [4] = assay: Cucumber field trial, Pythium-infected seeds, seed treatment, control or Pythium-inoculated soil (Example 3); set-up: Density: unit not given here
Text: The seeds were planted in a field, either in soil that had been inoculated with Pythium (Soil Inoc. with Pythium), or in soil that had not been inoculated with Pythium (Ctrl.), then allowed to grow. Concentrations and compositions of triadimenol, metalaxyl, and saponin are the same as given in Example 1. For cucumber, the industry standard dosage of metalaxyl is 15.5 grams of active ingredient per 100 kilograms of seed (15.5 GA/100 Kg). […] The data of TABLE 3 are shown graphically in FIG. 3. The relative densities for the data of TABLE 3 and FIG. 3 were calculated with reference to the 31 GA/100 Kg metalaxyl category. As shown by TABLE 3 and FIG. 3, inoculation of the soil with Pythium was correlated with a general decrease in cucumber seedling count, density, and relative density (compare Ctrl. versus Inoc.).

[5] = 34 DAA, Soil Inoc. with Pythium
[6] = 46 DAA, Soil Inoc. with Pythium
[7] = 18 DAA, Soil Inoc. with Pythium
[8] = 33 DAA, Soil Inoc. with Pythium

SMILES: CC(C)(C)C(O)C(Oc1ccc(Cl)cc1)n1cncn1 (stereo not shown) [Triadimenol]
- Count, Hybrid A (Pythium [1]; Day 2): 62
- Count, Hybrid B (Pythium [1]; Day 2): 24
- Count, Hybrid A (Pythium [1]; Day 7): 72
- Count, Hybrid B (Pythium [1]; Day 7): 40
- Count, Hybrid A (Pythium [1]; Day 14): 74
- Count, Hybrid B (Pythium [1]; Day 14): 40
- Count (Pythium [2]; 34 DAA, Ctrl. soil): 39.5
- Density (Pythium [2]; 34 DAA, Ctrl. soil): 79
- Relative Density (Pythium [2]; 34 DAA, Ctrl. soil): 106.8
- Count (Pythium [2]; [5]): 18.3
- Density (Pythium [2]; [5]): 36.5
- Relative Density (Pythium [2]; [5]): 73
- Count (Pythium [2]; 46 DAA, Ctrl. soil): 40.3
- Density (Pythium [2]; 46 DAA, Ctrl. soil): 80.5
- Relative Density (Pythium [2]; 46 DAA, Ctrl. soil): 107.3
- Count (Pythium [2]; [6]): 17.5
- Density (Pythium [2]; [6]): 35
- Relative Density (Pythium [2]; [6]): 71.4
- Count (Pythium [3]; 30 DAA): 21
- Density (Pythium [3]; 30 DAA): 25.9
- Relative Density (Pythium [3]; 30 DAA): 69.2
- Count (Pythium [3]; 46 DAA): 60
- Density (Pythium [3]; 46 DAA): 74.4
- Relative Density (Pythium [3]; 46 DAA): 96.4
- Vigor (Pythium [3]; 46 DAA, subjective score, lower more favorable): 4.50
- Count (Pythium [4]; 18 DAA, Ctrl. soil): 28
- Density (Pythium [4]; 18 DAA, Ctrl. soil): 56
- Relative Density (Pythium [4]; 18 DAA, Ctrl. soil): 80
- Count (Pythium [4]; [7]): 10
- Density (Pythium [4]; [7]): 20
- Relative Density (Pythium [4]; [7]): 34.5
- Count (Pythium [4]; 33 DAA, Ctrl. soil): 28.3
- Density (Pythium [4]; 33 DAA, Ctrl. soil): 56.5
- Relative Density (Pythium [4]; 33 DAA, Ctrl. soil): 83.1
- Count (Pythium [4]; [8]): 4.3
- Density (Pythium [4]; [8]): 8.5
- Relative Density (Pythium [4]; [8]): 16.2
